From patent US11267826B2, “Penicillin-binding protein inhibitors” (priority 2017, dated 2022)

Tests used:
E. coli K12 PBP1a/b = assay: Bocillin FL competition binding assay, PBP1a/1b combined; set-up: species or system Escherichia coli K12; conditions: 15 min pre-incubation, PBP 1a/1b combined
Method in brief: (§1)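 E. coli K12 membrane extracts (100 µg protein) pre-incubated 15 min with compound (0.005–2,480 µg/mL) in pH 7 phosphate/350 mM NaCl, then labelled with Bocillin FL 30 min at 35°C; SDS-PAGE fluorescence (ex 450/em 520 nm), μg/mL reported. PBP1a/1b unresolved, reported combined.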

E. coli PBP2 = target: T1, E. coli PBP2 (Escherichia coli, UniProt P0AD65); assay: Bocillin FL competition binding assay, PBP2; set-up: species or system Escherichia coli K12; conditions: 15 min pre-incubation
T1 construct: 100 μg's of total membrane protein extracts containing PBPs; endogenous in cells; host or cells: Escherichia coli K12, membrane protein fraction
Method in brief: as §1

E. coli PBP3 = target: T2, E. coli PBP3 (Escherichia coli, UniProt P0AD68); assay: Bocillin FL competition binding assay, PBP3; set-up: species or system Escherichia coli K12; conditions: 15 min pre-incubation
T2 construct: 100 μg's of total membrane protein extracts containing PBPs; endogenous in cells; host or cells: Escherichia coli K12, membrane protein fraction
Method in brief: as §1

S. aureus ATCC 29213 = assay: Broth microdilution MIC assay, S. aureus; format: cell-based; conditions: Staphylococcus aureus, ATCC29213; broth microdilution, 16-20 hours at 37° C.; read-out: S. aureus 29213 MIC
Method in brief: (§2)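 Following CLSI procedures, compounds were serially diluted 2-fold and challenged with bacteria at 5×10^5 CFU/mL in Mueller-Hinton broth supplemented with divalent cations. After 16-20 hours at 37° C, the lowest concentration without visible growth was recorded as the MIC.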

[1] = test system: hyper-permeable E. coli 901C; assay: Broth microdilution MIC assay, hyper-permeable E. coli; format: cell-based; conditions: Escherichia coli, read-out: E. coli 901C MIC
Method in brief: as §2

E. coli K12 PBP1b = target: T3, E. coli K12 PBP1b (Escherichia coli, UniProt P02919); assay: Competition binding assay using Bodipy-FL boronic acid probe (Example 125); conditions: Bodipy-FL boronic acid probe (Example 125) 30 μM, 10 minutes pre-incubation, 10 minutes reaction
T3 construct: endogenous in cells; host or cells: Escherichia coli K12, membrane protein fraction
Description: Penicillin binding proteins were isolated from Escherichia coli K12 by growth of Escherichia coli K12 from a single colony in 4 L of Luria-Bertani (LB) broth at 35° C. and 250 rpm to an OD600 nm of 0.5. The cells were harvested by centrifugation at 7,000×g for 10 min. at 4° C. Cells were resuspended and washed in 50 mM potassium phosphate pH 7.5. The cells were re-suspended in sonication buffer [50 mM Tris-HCl pH 7.5, 1 mM MgCl2, 1 mM beta-mercaptoethanol, and 5 μg/mL DNAse I] and sonicated by 4 passes of 30 seconds at 45 W on ice. The sample was clarified by centrifugation at 3,000×g to remove cell debris and unbroken cells and supernatant containing the membrane proteins was retained. The membrane proteins including the PBPs were further purified from soluble constituents by an ultracentrifugation step at 100,000×g for 30 min. at 4° C. The membrane proteins are washed twice with 10 mM sodium phosphate pH 7, resuspended in a volume of 5 mL, quantitated by BCA assay, adjusted to […] and frozen at −80° C. until use.
The adapted Bocillin FL competition binding method described herein incorporates a 15 min. pre-incubation of test compound with isolated PBPs to attempt to balance the difference in mechanism of inhibition between beta-lactams (largely irreversible covalent bond to active site Serine) and the boron-containing PBP inhibitor test compounds (reversible covalent bond to active site Serine). Briefly, 50 μL reactions consisted of 100 μg's of total membrane protein extracts containing PBPs incubated with a dilution series of test compound ranging from 0.005 μg/mL to 2,480 μg/mL in 10 mM sodium phosphate pH7 containing 350 mM NaCl. Thirty minute reactions at 35° C. were initiated by addition of […] Bocillin FL, quenched by addition of SDS-PAGE loading buffer containing sodium dodecyl sulfate (SDS) and heated for 15 minutes at 95° C. to denature proteins in preparation for SDS-polyacrylamide gel electrophoresis. The Bocillin FL labeled PBPs are then separated by SDS-PAGE in Novex NuPage 10% Bis-Tris pre-cast gels (Invitrogen). The SDS-PAGE gel, post-electrophoresis, is then washed in water to remove excess SDS for 10 minutes at room temperature and placed on the scanning bed of a GE Healthcare/Amersham Biosciences Storm 860 fluorescence scanner. The excitation wavelength is in the blue spectrum at 450 nm and the emission at 520 nm is captured by the instrument. Effective PBP inhibitors are detected by a reduction in Bocillin FL labeling of the particular PBP over the dose range of test compound in a dose-responsive manner. High molecular weight PBP 1a/1b are not resolved by these gels, thus we report HMW PBP binding results in μg/mL for PBPs 1a/1b combined as well as for PBP2 and PBP3.
To determine the ability of boronic acid-based test PBP inhibitors to bind Penicillin Binding Proteins (PBPs), a competition binding assay using a Bodipy-FL-labeled boronic acid PBP inhibitor (Example 125) was adapted from the classical method used to assess PBP potency of beta-lactams using Bocillin-FL (fluorescently-labeled penicillin V). The method is identical to that described in Example I for the Bocillin-FL competition binding assay with the following exceptions, the Bodipy-FL boronic acid probe (Example 125) is used at a final concentration of 30 μM, pre-incubation time of test compound with PBP enzymes is 10 minutes and reaction time is set for 10 minutes and reactions are prepared for SDS-PAGE analysis by simply adding SDS-containing loading buffer. Representative results are shown in Table 5, where A represents a potency of >1000 μg/mL, B represents a potency between 64 and 1000 μg/mL inclusive, and C represents a potency of <64 μg/mL. NT=Not Tested.

T2 sequence (P0AD68 1-577): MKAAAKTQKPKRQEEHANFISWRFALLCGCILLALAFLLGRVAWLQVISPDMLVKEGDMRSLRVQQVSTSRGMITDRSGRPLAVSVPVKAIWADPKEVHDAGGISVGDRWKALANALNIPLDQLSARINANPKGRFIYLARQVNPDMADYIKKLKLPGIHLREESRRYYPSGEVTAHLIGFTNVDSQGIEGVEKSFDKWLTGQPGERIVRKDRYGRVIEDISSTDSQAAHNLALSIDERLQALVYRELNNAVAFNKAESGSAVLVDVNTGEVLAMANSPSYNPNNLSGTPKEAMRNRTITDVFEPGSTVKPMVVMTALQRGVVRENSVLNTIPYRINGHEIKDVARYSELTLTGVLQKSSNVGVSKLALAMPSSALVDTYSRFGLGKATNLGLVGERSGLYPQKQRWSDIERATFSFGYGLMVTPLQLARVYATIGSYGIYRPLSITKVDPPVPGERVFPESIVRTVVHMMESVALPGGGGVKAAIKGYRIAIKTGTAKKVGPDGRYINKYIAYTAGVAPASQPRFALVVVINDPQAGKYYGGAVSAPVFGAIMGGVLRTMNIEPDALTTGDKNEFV
T3 sequence (P02919 whole entry): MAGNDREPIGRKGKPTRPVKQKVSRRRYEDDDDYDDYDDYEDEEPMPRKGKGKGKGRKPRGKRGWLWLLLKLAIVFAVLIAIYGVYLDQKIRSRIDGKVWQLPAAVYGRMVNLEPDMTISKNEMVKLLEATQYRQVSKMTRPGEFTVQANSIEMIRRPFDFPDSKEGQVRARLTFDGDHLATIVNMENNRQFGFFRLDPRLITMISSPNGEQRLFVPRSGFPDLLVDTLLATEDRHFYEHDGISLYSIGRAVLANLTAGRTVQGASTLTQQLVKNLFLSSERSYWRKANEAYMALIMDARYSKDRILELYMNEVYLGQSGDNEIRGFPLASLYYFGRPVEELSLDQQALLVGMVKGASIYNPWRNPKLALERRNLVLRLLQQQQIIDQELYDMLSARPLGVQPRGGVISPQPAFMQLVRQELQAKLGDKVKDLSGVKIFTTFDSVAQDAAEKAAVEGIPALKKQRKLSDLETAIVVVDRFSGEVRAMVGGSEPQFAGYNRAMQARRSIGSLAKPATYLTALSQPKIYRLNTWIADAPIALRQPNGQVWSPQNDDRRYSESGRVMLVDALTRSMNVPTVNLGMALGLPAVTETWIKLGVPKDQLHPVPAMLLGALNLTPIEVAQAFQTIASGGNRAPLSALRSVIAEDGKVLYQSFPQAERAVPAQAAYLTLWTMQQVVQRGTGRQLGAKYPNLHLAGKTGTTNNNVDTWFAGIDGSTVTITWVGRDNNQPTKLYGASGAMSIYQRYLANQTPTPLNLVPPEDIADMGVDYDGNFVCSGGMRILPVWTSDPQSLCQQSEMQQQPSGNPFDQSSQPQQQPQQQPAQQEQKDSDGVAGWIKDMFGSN
T1 sequence (P0AD65 whole entry): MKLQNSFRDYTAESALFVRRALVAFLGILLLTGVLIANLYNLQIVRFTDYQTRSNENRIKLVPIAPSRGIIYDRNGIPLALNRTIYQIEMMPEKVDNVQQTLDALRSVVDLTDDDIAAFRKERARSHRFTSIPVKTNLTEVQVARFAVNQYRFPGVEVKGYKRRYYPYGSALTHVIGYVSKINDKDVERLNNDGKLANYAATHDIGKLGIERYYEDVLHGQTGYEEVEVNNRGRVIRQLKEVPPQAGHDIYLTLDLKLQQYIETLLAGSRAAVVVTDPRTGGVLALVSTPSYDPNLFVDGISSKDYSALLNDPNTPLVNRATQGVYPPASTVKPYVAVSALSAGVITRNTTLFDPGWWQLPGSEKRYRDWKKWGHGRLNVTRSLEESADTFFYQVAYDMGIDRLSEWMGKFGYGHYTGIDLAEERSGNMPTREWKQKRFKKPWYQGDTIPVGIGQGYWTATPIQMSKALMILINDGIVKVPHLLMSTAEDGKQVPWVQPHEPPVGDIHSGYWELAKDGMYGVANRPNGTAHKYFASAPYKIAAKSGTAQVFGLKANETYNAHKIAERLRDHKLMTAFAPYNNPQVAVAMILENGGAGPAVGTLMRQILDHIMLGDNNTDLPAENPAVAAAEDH

Row | Structure (SMILES) | E. coli K12 PBP1a/b Potency (E. coli K12 PBP1a/b) | E. coli PBP2 Potency (E. coli PBP2) | E. coli PBP3 Potency (E. coli PBP3) | MIC (S. aureus ATCC 29213) | MIC [1] | E. coli K12 PBP1b Potency (E. coli K12 PBP1b)
1 | NC(=O)CO/N=C(\C(=O)N[C@H]1Cc2cccc(C(=O)O)c2OB1O)c1csc(N)n1 [Example 61, (R,Z)-3-(2-((2-amino-2-oxoethoxy)imino)-2-(2-aminothiazol-4-yl)acetamido)-2-hydroxy-3,4-dihydro-2H-benzo[e][1,2]oxaborinine-8-carboxylic Acid] | C (C represents a potency of <64 μg/mL) | B (B represents a potency between 64 and 1000 μg/mL inclusive) | C (C represents a potency of <64 μg/mL) | 64 to 128 µg/mL | < 64 µg/mL | C (C represents a potency of <64 μg/mL)
2 | CC(C)(O/N=C(\C(=O)N[C@H]1Cc2cc(O)cc(C(=O)O)c2OB1O)c1csc(N)n1)C(N)=O [Example 82, (R,Z)-3-(2-(((1-amino-2-methyl-1-oxopropan-2-yl)oxy)imino)-2-(2-aminothiazol-4-yl)acetamido)-2,6-dihydroxy-3,4-dihydro-2H-benzo[e][1,2]oxaborinine-8-carboxylic Acid] | – | – | – | > 128 µg/mL | < 64 µg/mL | B (B represents a potency between 64 and 1000 μg/mL inclusive)
3 | Nc1nc(/C(=N/OCC(O)CO)C(=O)N[C@H]2Cc3cccc(C(=O)O)c3OB2O)cs1 (stereo partly drawn) [Example 76, (3R)-3-((Z)-2-(2-aminothiazol-4-yl)-2-((2,3-dihydroxypropoxy)imino)acetamido)-2-hydroxy-3,4-dihydro-2H-benzo[e][1,2]oxaborinine-8-carboxylic Acid] | – | – | – | 64 to 128 µg/mL | < 64 µg/mL | B (B represents a potency between 64 and 1000 μg/mL inclusive)
4 | CC(C)NC(=N)c1ccc(OCCO/N=C(\C(=O)N[C@H]2Cc3cccc(C(=O)O)c3OB2O)c2csc(N)n2)cc1 [Example 49, (R,Z)-3-(2-(2-aminothiazol-4-yl)-2-((2-(4-(N-isopropylcarbamimidoyl)phenoxy)ethoxy)imino)acetamido)-2-hydroxy-3,4-dihydro-2H-benzo[e][1,2]oxaborinine-8-carboxylic Acid] | B (B represents a potency between 64 and 1000 μg/mL inclusive) | B (B represents a potency between 64 and 1000 μg/mL inclusive) | B (B represents a potency between 64 and 1000 μg/mL inclusive) | 64 to 128 µg/mL | < 64 µg/mL | A (A represents a potency of >1000 μg/mL)
5 | N=C(NC1CCNCC1)c1ccc(OCCO/N=C(\C(=O)N[C@H]2Cc3cccc(C(=O)O)c3OB2O)c2csc(N)n2)cc1 [Example 47, (R,Z)-3-(2-(2-aminothiazol-4-yl)-2-((2-(4-(N-(piperidin-4-yl)carbamimidoyl)phenoxy)ethoxy)imino)acetamido)-2-hydroxy-3,4-dihydro-2H-benzo[e][1,2]oxaborinine-8-carboxylic Acid] | B (B represents a potency between 64 and 1000 μg/mL inclusive) | B (B represents a potency between 64 and 1000 μg/mL inclusive) | B (B represents a potency between 64 and 1000 μg/mL inclusive) | 64 to 128 µg/mL | < 64 µg/mL | B (B represents a potency between 64 and 1000 μg/mL inclusive)
6 | Nc1nc(/C(=N/OCCF)C(=O)N[C@H]2Cc3cccc(C(=O)O)c3OB2O)cs1 [Example 113, (R,Z)-3-(2-(2-aminothiazol-4-yl)-2-((2-fluoroethoxy)imino)acetamido)-2-hydroxy-3,4-dihydro-2H-benzo[e][1,2]oxaborinine-8-carboxylic Acid] | – | – | – | 64 to 128 µg/mL | < 64 µg/mL | B (B represents a potency between 64 and 1000 μg/mL inclusive)
7 | N=C(N)c1ccc(OCCO/N=C(\C(=O)N[C@H]2Cc3cccc(C(=O)O)c3OB2O)c2csc(N)n2)cc1 [Example 55, (R,Z)-3-(2-(2-aminothiazol-4-yl)-2-((2-(4-carbamimidoylphenoxy)ethoxy)imino)acetamido)-2-hydroxy-3,4-dihydro-2H-benzo[e][1,2]oxaborinine-8-carboxylic Acid] | C (C represents a potency of <64 μg/mL) | B (B represents a potency between 64 and 1000 μg/mL inclusive) | C (C represents a potency of <64 μg/mL) | > 128 µg/mL | < 64 µg/mL | –
8 | CN(C)C(=O)CO/N=C(\C(=O)N[C@H]1Cc2cccc(C(=O)O)c2OB1O)c1csc(N)n1 [Example 60, (R,Z)-3-(2-(2-aminothiazol-4-yl)-2-((2-(dimethylamino)-2-oxoethoxy)imino)acetamido)-2-hydroxy-3,4-dihydro-2H-benzo[e][1,2]oxaborinine-8-carboxylic Acid] | B (B represents a potency between 64 and 1000 μg/mL inclusive) | C (C represents a potency of <64 μg/mL) | C (C represents a potency of <64 μg/mL) | > 128 µg/mL | < 64 µg/mL | –
9 | NCCCC[C@@H](NC(=O)CO/N=C(\C(=O)N[C@H]1Cc2cccc(C(=O)O)c2OB1O)c1csc(N)n1)C(=O)O [Example 66, (R)-3-((Z)-2-((2-(((R)-5-amino-1-carboxypentyl)amino)-2-oxoethoxy)imino)-2-(2-aminothiazol-4-yl)acetamido)-2-hydroxy-3,4-dihydro-2H-benzo[e][1,2]oxaborinine-8-carboxylic Acid] | C (C represents a potency of <64 μg/mL) | B (B represents a potency between 64 and 1000 μg/mL inclusive) | C (C represents a potency of <64 μg/mL) | > 128 µg/mL | < 64 µg/mL | –
10 | Nc1nc(/C(=C/C(=O)O)C(=O)N[C@H]2Cc3cccc(C(=O)O)c3OB2O)cs1 [Example 89, (R,Z)-3-(2-(2-aminothiazol-4-yl)-3-carboxyacrylamido)-2-hydroxy-3,4-dihydro-2H-benzo[e][1,2]oxaborinine-8-carboxylic Acid] | A (A represents a potency of >1000 μg/mL) | C (C represents a potency of <64 μg/mL) | C (C represents a potency of <64 μg/mL) | > 128 µg/mL | 64 to 128 µg/mL | –
